According to ChEMBL document CHEMBL1128197 (J Med Chem, 1995):

Target: Translocator protein (Rattus norvegicus, UniProt P16257)
Test: Binding affinity constant for peripheral (mitochondrial) Benzodiazepine receptor

Chain of Translocator protein (P16257 whole entry, looked up): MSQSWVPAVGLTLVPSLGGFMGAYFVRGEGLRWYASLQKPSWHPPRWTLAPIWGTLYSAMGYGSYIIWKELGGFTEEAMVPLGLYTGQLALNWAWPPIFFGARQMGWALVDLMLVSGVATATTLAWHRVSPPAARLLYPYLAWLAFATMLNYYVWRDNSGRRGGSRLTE

For CC(=O)OC1=C(c2ccc(Cl)cc2)Sc2ccccc2-n2cccc21, the Ki was 30 nM.
COC1=C(c2ccccc2)Sc2ccccc2-n2cccc21 was tested, and the Ki was 7000 nM.
For COc1ccc(C2=C(OC(=O)c3cccnc3)c3cccn3-c3ccccc3S2)cc1, the Ki was greater than 10 nM.
Molecule COc1ccc(C2=C(OS(C)(=O)=O)c3cccn3-c3ccccc3S2)cc1 has a Ki of 95 nM.
In the case of CN(C)C(=O)OC1=C(c2ccccc2)Sc2ccccc2-n2cccc21, the Ki is reported as 9 nM.
COc1ccc(C2=C(OC(=O)c3cc(OC)c(OC)c(OC)c3)c3cccn3-c3cc(Cl)ccc3S2)cc1 gave a Ki greater than 10 nM.
C1=C(c2ccccc2)Sc2ccccc2-n2cccc21 showed a Ki of 3150 nM.
In the case of CN1CCN=C(c2ccccc2)c2cc(Cl)ccc21 [MEDAZEPAM], the Kd is reported as greater than 10 nM.
